Measured values: PubChem BioAssay AID248 (DTP/NCI, 2004)
Where “and” joins values, the source holds several entries; their conditions need not be identical. Equal values may be shown once. Toxic doses and inconclusive results are not listed. Peptide text beside a SMILES is read from it. * marks the point of attachment. Cbz = O=C(OCc1ccccc1)*

Test system: L1210 leukemia ip in BDF1 mice, survival T/C
Assay: NCI In Vivo Anticancer Drug Screen. Data for tumor model L1210 Leukemia (intraperitoneal) in B6D2F1 (BDF1) mice
Conditions: endpoint: mean survival time, higher = longer survival
In short: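 Read-out is survival time, reported as the treated-group measurement over the vehicle-control measurement.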

[1] = dose: 100.0 mg/kg/injection, schedule: Q01DX001 (ip), vehicle: saline
[2] = dose: 200.0 mg/kg/injection, schedule: Q01DX001 (ip), vehicle: saline
[3] = dose: 400.0 mg/kg/injection, schedule: Q01DX001 (ip), vehicle: saline
[4] = dose: 100.0 mg/kg/injection, schedule: Q04DX003 (ip), vehicle: saline
[5] = dose: 200.0 mg/kg/injection, schedule: Q04DX003 (ip), vehicle: saline
[6] = dose: 400.0 mg/kg/injection, schedule: Q04DX003 (ip), vehicle: saline
[7] = dose: 100.0 mg/kg/injection, schedule: Q01DX009 (ip), vehicle: saline with Tween-80
[8] = dose: 100.0 mg/kg/injection, schedule: Q04DX003 (ip), vehicle: saline with Tween-80
[9] = dose: 200.0 mg/kg/injection, schedule: Q01DX009 (ip), vehicle: saline with Tween-80
[10] = dose: 200.0 mg/kg/injection, schedule: Q04DX003 (ip), vehicle: saline with Tween-80
[11] = dose: 100.0 mg/kg/injection, schedule: Q04DX002 (ip), vehicle: saline with Tween-80
[12] = dose: 200.0 mg/kg/injection, schedule: Q04DX002 (ip), vehicle: saline with Tween-80
[13] = dose: 400.0 mg/kg/injection, schedule: Q04DX002 (ip), vehicle: saline with Tween-80
[14] = dose: 25.0 mg/kg/injection, schedule: Q01DX009 (ip), vehicle: Klucel (hydroxypropylcellulose) (HPC)
[15] = dose: 50.0 mg/kg/injection, schedule: Q01DX009 (ip), vehicle: Klucel (hydroxypropylcellulose) (HPC)

O=C(Nc1ccc(NC2=NCCN2)cc1)c1cc(Cl)cc(C(=O)Nc2ccc(NC3=NCCN3)cc2)c1
T/C (dose: 7.5 mg/kg/injection, schedule: Q01DX010 (ip), vehicle: saline): 100 % of control
T/C (dose: 15.0 mg/kg/injection, schedule: Q01DX010 (ip), vehicle: saline): 95 % of control
T/C (dose: 15.0 mg/kg/injection, schedule: Q01DX Z (ip), vehicle: saline): 105 % of control
T/C (dose: 30.0 mg/kg/injection, schedule: Q01DX Z (ip), vehicle: saline): 105 % of control

COC(=O)C(CC(C)C)NC(=O)C(CC(N)=O)NC(=O)OCc1ccccc1 (stereo not drawn) (Cbz-Asn-Leu-OMe; configuration not given here)
T/C [1]: 96 % of control
T/C [2]: 93 % of control
T/C [3]: 98 % of control

CCCNC(=O)c1ccc(NC(=O)Nc2ccc(C3=NCCN3)cc2)cc1NC(=O)Nc1ccc(C2=NCCN2)cc1
T/C (dose: 25.0 mg/kg/injection, schedule: Q01DX Z (ip), vehicle: carboxymethylcellulose (CMC)): 113 % of control
T/C (dose: 50.0 mg/kg/injection, schedule: Q01DX Z (ip), vehicle: carboxymethylcellulose (CMC)): 117 % of control
T/C (dose: 100.0 mg/kg/injection, schedule: Q01DX Z (ip), vehicle: carboxymethylcellulose (CMC)): 108 % of control and 113 % of control

CCCCCCCCCCCCOC(=O)c1cc(O)c(O)c(O)c1
T/C (dose: 75.0 mg/kg/injection, schedule: Q01DX001 (ip), vehicle: acetone): 103 % of control

O=[N+]([O-])c1ccc(OCCCOc2ccc(S(=O)(=O)F)cc2)cc1
T/C [4]: 102 % of control
T/C [5]: 102 % of control
T/C [6]: 106 % of control

O=C(NC(O)C(Cl)(Cl)Cl)c1ccccc1O (stereo unspecified)
T/C [7]: 95 % of control
T/C [8]: 93 % of control
T/C [9]: 103 % of control
T/C [10]: 95 % of control
T/C (dose: 400.0 mg/kg/injection, schedule: Q04DX003 (ip), vehicle: saline with Tween-80): 95 % of control

CC1=C(N2CCN(c3ccc(Cl)cc3)CC2)C(=O)CC(C)(C)C1
T/C [1]: 97 % of control
T/C [2]: 101 % of control
T/C [3]: 103 % of control

O=C(O)c1ccccc1C1C=CCCC1 (stereo unspecified)
T/C [11]: 101 % of control
T/C [12]: 101 % of control
T/C [13]: 104 % of control

CC(=O)OCc1c(COC(C)=O)c(-c2ccc(Cl)cc2)n2c1CCC2
T/C (dose: 12.5 mg/kg/injection, schedule: Q01DX009 (ip), vehicle: Klucel (hydroxypropylcellulose) (HPC)): 95 % of control
T/C [14]: 102 % of control
T/C [15]: 117 % of control

COc1cccc(C)c1NC(=O)NCCCl
T/C (dose: 100.0 mg/kg/injection, schedule: Q04DX003 (ip), vehicle: Klucel (hydroxypropylcellulose) (HPC)): 100 % of control
T/C (dose: 200.0 mg/kg/injection, schedule: Q04DX003 (ip), vehicle: Klucel (hydroxypropylcellulose) (HPC)): 94 % of control
T/C (dose: 400.0 mg/kg/injection, schedule: Q04DX003 (ip), vehicle: Klucel (hydroxypropylcellulose) (HPC)): 94 % of control

O=NN(CCF)C(=O)NC12CC3CC(CC(C3)C1)C2
T/C (dose: 40.0 mg/kg/injection, schedule: Q01DX001 (ip), vehicle: carboxymethylcellulose (CMC)): 124 % of control
T/C (dose: 60.0 mg/kg/injection, schedule: Q01DX001 (ip), vehicle: carboxymethylcellulose (CMC)): 190 % of control
T/C (dose: 93.0 mg/kg/injection, schedule: Q01DX001 (ip), vehicle: carboxymethylcellulose (CMC)): 192 % of control
T/C (dose: 187.0 mg/kg/injection, schedule: Q01DX001 (ip), vehicle: carboxymethylcellulose (CMC)): 259 % of control

C/C=C1\CN(C(=O)C(NC(=O)C(N)C(O)C(O)COC(N)=O)C2OC(n3cc(C(=O)O)c(=O)[nH]c3=O)C(O)C2O)C1C(=O)O (stereo unspecified) (tested in a mixture with another compound)
T/C [1]: 109 % of control
T/C [2]: 103 % of control
T/C [3]: 97 % of control

OCC(O)C1OC(Oc2ccccc2)C(O)C(O)C1O (stereo unspecified)
T/C [4]: 100 % of control
T/C [5]: 98 % of control
T/C [6]: 100 % of control

O=C(COc1cccc(Cl)c1)Nc1ccccc1
T/C [7]: 94 % of control
T/C [9]: 100 % of control
T/C (dose: 400.0 mg/kg/injection, schedule: Q01DX009 (ip), vehicle: saline with Tween-80): 89 % of control

O=C1/C(=N/O)CCCc2ccccc21
T/C (dose: 100.0 mg/kg/injection, schedule: Q01DX001 (ip), vehicle: carboxymethylcellulose (CMC)): 103 % of control
T/C (dose: 200.0 mg/kg/injection, schedule: Q01DX001 (ip), vehicle: carboxymethylcellulose (CMC)): 97 % of control
T/C (dose: 400.0 mg/kg/injection, schedule: Q01DX001 (ip), vehicle: carboxymethylcellulose (CMC)): 103 % of control

O=C(NCCCCCCCCCNC(=O)Nc1ccc(C2=NCCN2)cc1)Nc1ccc(C2=NCCN2)cc1
T/C (dose: 62.0 mg/kg/injection, schedule: Q01DX Z (ip), vehicle: carboxymethylcellulose (CMC)): 102 % of control
T/C (dose: 125.0 mg/kg/injection, schedule: Q01DX Z (ip), vehicle: carboxymethylcellulose (CMC)): 100 % of control

CC(=O)N1c2ccccc2Sc2cc(C(O)(C(F)(F)F)C(F)(F)F)ccc21
T/C (dose: 25.0 mg/kg/injection, schedule: Q01DX009 (ip), vehicle: saline with Tween-80): 95 % of control
T/C (dose: 50.0 mg/kg/injection, schedule: Q01DX009 (ip), vehicle: saline with Tween-80): 95 % of control
T/C (dose: 50.0 mg/kg/injection, schedule: Q04DX003 (ip), vehicle: saline with Tween-80): 95 % of control
T/C [7]: 95 % of control
T/C [8]: 91 % of control
T/C [10]: 91 % of control

CCN(CC)CCCOC(=O)c1ccc(N)cc1
T/C (dose: 12.5 mg/kg/injection, schedule: Q01DX009 (ip), vehicle: saline): 103 % of control
T/C (dose: 25.0 mg/kg/injection, schedule: Q01DX009 (ip), vehicle: saline): 97 % of control
T/C (dose: 50.0 mg/kg/injection, schedule: Q01DX009 (ip), vehicle: saline): 98 % of control

COc1ccc2c(c1)C1(C)CCCC(C)C1=CC2=O (stereo unspecified)
T/C (dose: 25.0 mg/kg/injection, schedule: Q01DX001 (ip), vehicle: other): 100 % of control
T/C (dose: 50.0 mg/kg/injection, schedule: Q01DX001 (ip), vehicle: other): 100 % of control
T/C (dose: 100.0 mg/kg/injection, schedule: Q01DX001 (ip), vehicle: other): 97 % of control

CCCCCCCCCCCCCCCOc1cccc(OCCCCCCCCCCCCCCC)c1
T/C (dose: 50.0 mg/kg/injection, schedule: Q01DX001 (ip), vehicle: Klucel (hydroxypropylcellulose) (HPC)): 92 % of control
T/C (dose: 100.0 mg/kg/injection, schedule: Q01DX001 (ip), vehicle: Klucel (hydroxypropylcellulose) (HPC)): 92 % of control
T/C (dose: 200.0 mg/kg/injection, schedule: Q01DX001 (ip), vehicle: Klucel (hydroxypropylcellulose) (HPC)): 92 % of control

CCO/C=C1\SC(=S)N(c2cccc(O)c2)C1=O
T/C [14]: 86 % of control
T/C [15]: 113 % of control
T/C (dose: 100.0 mg/kg/injection, schedule: Q01DX009 (ip), vehicle: Klucel (hydroxypropylcellulose) (HPC)): 93 % of control

Nc1ncnc2c1ncn2C1OC(CO)CC1O (stereo unspecified)
T/C (dose: 37.0 mg/kg/injection, schedule: Q01DX Z (ip), vehicle: carboxymethylcellulose (CMC)): 114 % of control
T/C (dose: 50.0 mg/kg/injection, schedule: Q01DX001 (ip), vehicle: saline): 111 % of control
T/C (dose: 75.0 mg/kg/injection, schedule: Q01DX Z (ip), vehicle: carboxymethylcellulose (CMC)): 111 % of control
T/C [1]: 111 % of control
T/C (dose: 150.0 mg/kg/injection, schedule: Q01DX Z (ip), vehicle: carboxymethylcellulose (CMC)): 114 % of control
T/C [2]: 115 % of control
T/C (dose: 300.0 mg/kg/injection, schedule: Q01DX Z (ip), vehicle: carboxymethylcellulose (CMC)): 114 % of control and 115 % of control
T/C [3]: 123 % of control

O=C(Nc1ccccc1)OC1CCCCC1OC(=O)Nc1ccccc1 (stereo unspecified)
T/C [11]: 87 % of control
T/C [12]: 107 % of control
T/C [13]: 97 % of control

CC[N-]c1nncs1.CC[N-]c1nncs1.CC[N-]c1nncs1.CC[N-]c1nncs1.[Cl][Rh][Cl]
T/C (dose: 3.13 mg/kg/injection, schedule: Q04DX003 (ip), vehicle: distilled water + Tween-80): 101 % of control
T/C (dose: 6.25 mg/kg/injection, schedule: Q04DX003 (ip), vehicle: distilled water + Tween-80): 104 % of control
T/C (dose: 12.5 mg/kg/injection, schedule: Q04DX003 (ip), vehicle: distilled water + Tween-80): 98 % of control
T/C (dose: 25.0 mg/kg/injection, schedule: Q04DX003 (ip), vehicle: distilled water + Tween-80): 92 % of control
T/C (dose: 50.0 mg/kg/injection, schedule: Q04DX003 (ip), vehicle: distilled water + Tween-80): 93 % of control
T/C (dose: 100.0 mg/kg/injection, schedule: Q04DX003 (ip), vehicle: distilled water + Tween-80): 104 % of control

CCCCOC(=O)CCl
T/C [11]: 100 % of control
T/C [12]: 107 % of control
